Common to all, as to test: NCI tumour cell line growth inhibition, 48 h
Assay [1] concerns T-47D breast.
Assay [2] concerns KM20L2 colon.
Assay [3] relates to HOP-62 NSCLC.
Assay [4] relates to K-562 leukemia.
Assay [5] has as its system SNB-78 CNS.
Assay [6] relates to DMS 114 small cell lung.
Assay [7] has as its system SF-268 CNS.
The subject of assay [8] is OVCAR-8 ovarian.
The subject of assay [9] is SN12C renal.
Assay [10] concerns HS 578T breast.

Where “and” joins values, the source holds several entries; their conditions need not be identical. Identical values can stand only once.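 96-well plates; 48 h exposure; 5 concentrations. Endpoints by linear interpolation between flanking doses. Not reached: highest tested concentration assigned. GI50: concentration for 50% inhibition of growth. TGI: concentration producing complete growth inhibition.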 Where a SMILES comes first, the peptide text is derived from it. [ ]: non-standard residue; d: D form. 2Nal = N[CH](Cc1ccc2ccccc2c1)C(=O)O A value given as a limit tells only on which side of the number the result lay.

Turning to `COc1ccc(/C=C\c2cc(OC)c(OC)c(OC)c2)c(O)c1O`, the TGI in assay [1] was over 79.7 µM; in [2], 76.9 µM; in [3] it was 68.8 µM and 109 µM; in [4] it was 13.2 µM and 37.1 µM; in assay [5], > 89.6 µM and 48.5 µM; in assay [6], 3.92 µM and 0.568 µM. Besides, the TGI in assay [7] is 37.8 µM and 32 µM; in [8] it was 7.13 µM and 9.64 µM; in [9], 25.9 µM and 28.4 µM. The GI50 in assay [2] was 26.6 µM; in assay [3], 1.98 µM; in assay [4], 0.333 µM; in assay [5] it was 1.86 µM; in assay [6], 0.196 µM; in assay [7], 0.249 µM. In addition, the GI50 in assay [8] is 0.0517 µM; in assay [9] it was 0.296 µM.

Take `O=C1C(=O)N(c2cccc(C(F)(F)F)c2)C(=O)C(=O)C1c1nc2ccccc2s1`: the TGI in assay [1], in [2], in assay [3], in assay [4], in assay [5] and in [6] was over 100 µM each time. In addition, the TGI in [7] was over 100 µM; in [8], over 53.8 µM; in assay [10] it was over 100 µM; in assay [9], over 100 µM.

In the case of `CN(O)C(=S)c1ccccc1`, the TGI in assay [1] is over 100 µM; in assay [2] it was over 100 µM; in [3] it was over 90.8 µM; in [4], over 100 µM; in [5], over 100 µM; in [6], 4.12 µM. Also, the TGI in assay [7] was over 100 µM; in assay [8], 33.2 µM; in assay [10], over 100 µM; in assay [9], over 55.4 µM.

In the case of `CC(C)C(NC(=O)C(CCCCN)NC(=O)C(Cc1c[nH]c2ccccc12)NC(=O)C(Cc1ccc(O)cc1)NC(=O)C(CS)NC(=O)C(N)Cc1ccc2ccccc2c1)C(=O)NC(CS)C(=O)NC(C(N)=O)C(C)O` (stereo not given) (H-[2Nal]CYWKVCT-NH2; configuration not given here), the TGI was over 12.5 µM in assay [1]; over 100 µM in [2]; over 100 µM in [3]; over 100 µM in [4]; 23.2 µM in assay [5]; over 100 µM in [6]. In addition, the TGI in assay [7] was over 12.5 µM; in [8] it was over 100 µM; in [10], over 12.5 µM; in [9], over 100 µM. For the same molecule, the GI50 in assay [3], in assay [4], in assay [8] and in assay [9] was over 100 µM throughout.

For `CCN(CC)CC(C)(C)C(=O)/C=C/c1ccc(/C=C/C(=O)C(C)(C)CN(CC)CC)cc1`, the TGI in assay [1] stood at 3.21 µM; in assay [2], 2.51 µM; in assay [3], 5.01 µM; in [5] it was 4.64 µM; in assay [6], 0.876 µM; in assay [7] it was 2.11 µM. For the same molecule, the TGI in assay [8] came to 0.774 µM; in [10], 4.45 µM; in assay [9] it was 1.06 µM.

For `CC(=O)NC(CCCCN(Cc1ccccc1)C(=O)N(CCCl)N=O)C(=O)NCc1ccccc1` (stereo not given), the TGI is 36.7 µM in assay [1]; over 69.5 µM in assay [2]; 47 µM in assay [3]; over 89.4 µM in assay [4]; over 100 µM in assay [5]; over 100 µM in assay [6]. In addition, the TGI is 40.8 µM in assay [7], 43.2 µM in assay [8], 49.7 µM in assay [10] and over 77.8 µM in assay [9].

Source of the values: PubChem BioAssay (NCI).
